{"source": "patent US11422106B2", "about": "“Using 4-acetoxyphenol as a substrate for modular hydrolase biosensors” (United States Government, as represented by the …, priority 2019, dated 2022)", "molecules": {"B1": {"name": "Lipolase 100 L: Lipase, Novozyme, Thermomyces lanuginosus (protein, UniProt O59952 23-291, looked up)", "Lipase": "EVSQDLFNQFNLFAQYSAAAYCGKNNDAPAGTNITCTGNACPEVEKADATFLYSFEDSGVGDVTGFLALDNTNKLIVLSFRGSRSIENWIGNLNFDLKEINDICSGCRGHDGFTSSWRSVADTLRQKVEDAVREHPDYRVVFTGHSLGGALATVAGADLRGNGYDIDVFSYGAPRVGNRAFAEFLTVQTGGTLYRITHTNDIVPRLPPREFGYSHSSPEYWIKSGTLVPVTRNDIVKIEGIDATGGNNQPNIPDIPAHLWYFGLIGTCL", "modifications": "commercial Novozymes enzyme preparation", "notes": "Lipase, Novozyme, Thermomyces lanuginosus"}, "B2": {"name": "Palatase 20000 L: Lipase, Novozyme, Rhizomucor miehei (protein, UniProt P19515 95-363, looked up)", "Lipase": "SIDGGIRAATSQEINELTYYTTLSANSYCRTVIPGATWDCIHCDATEDLKIIKTWSTLIYDTNAMVARGDSEKTIYIVFRGSSSIRNWIADLTFVPVSYPPVSGTKVHKGFLDSYGEVQNELVATVLDQFKQYPSYKVAVTGHSLGGATALLCALDLYQREEGLSSSNLFLYTQGQPRVGDPAFANYVVSTGIPYRRTVNERDIVPHLPPAAFGFLHAGEEYWITDNSPETVQVCTSDLETSDCSNSIVPFTSVLDHLSYFGINTGLCT"}, "B3": {"name": "Alcalase 2.5 Type DX: Subtilisin, Novozyme, Bacillus licheniformis (protein, UniProt P00780 106-379, looked up)", "Subtilisin Carlsberg": "AQTVPYGIPLIKADKVQAQGFKGANVKVAVLDTGIQASHPDLNVVGGASFVAGEAYNTDGNGHGTHVAGTVAALDNTTGVLGVAPSVSLYAVKVLNSSGSGSYSGIVSGIEWATTNGMDVINMSLGGASGSTAMKQAVDNAYAKGVVVVAAAGNSGSSGNTNTIGYPAKYDSVIAVGAVDSNSNRASFSSVGAELEVMAPGAGVYSTYPTNTYATLNGTSMASPHVAGAAALILSKHPNLSASQVRNRLSSTATYLGSSFYYGKGLINVEAAAQ", "modifications": "commercial Novozymes enzyme preparation", "notes": "Subtilisin, Novozyme, Bacillus licheniformis"}}, "key": {"[1]": {"target": "T1, Acetylcholinesterase (AchE) (Electrophorus electricus, UniProt O42275)", "T1 construct": "purchased Sigma-Aldrich Type VI-S (catalogue number not given)", "T1 sequence (O42275 24-633)": "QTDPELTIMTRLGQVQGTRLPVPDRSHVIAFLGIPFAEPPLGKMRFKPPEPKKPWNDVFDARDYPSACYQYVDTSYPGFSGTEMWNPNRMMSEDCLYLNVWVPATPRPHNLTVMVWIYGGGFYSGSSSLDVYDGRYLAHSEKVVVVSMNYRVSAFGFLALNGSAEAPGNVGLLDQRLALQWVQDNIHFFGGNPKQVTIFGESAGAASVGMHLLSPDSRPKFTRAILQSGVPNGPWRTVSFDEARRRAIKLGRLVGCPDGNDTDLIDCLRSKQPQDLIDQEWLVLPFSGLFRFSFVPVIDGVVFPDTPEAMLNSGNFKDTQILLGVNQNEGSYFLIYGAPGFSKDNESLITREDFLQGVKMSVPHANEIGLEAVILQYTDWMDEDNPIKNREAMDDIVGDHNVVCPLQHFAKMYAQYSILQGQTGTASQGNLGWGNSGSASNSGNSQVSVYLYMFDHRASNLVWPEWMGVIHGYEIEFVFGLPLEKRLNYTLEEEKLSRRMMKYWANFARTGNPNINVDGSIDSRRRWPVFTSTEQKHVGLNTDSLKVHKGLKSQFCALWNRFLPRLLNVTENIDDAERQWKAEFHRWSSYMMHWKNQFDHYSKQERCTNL", "test": "Amperometric activity assay of immobilized AchE electrode with 4-acetoxyphenol (steady state current at 0.35 V)", "format": "biochemical, Electrophorus electricus (electric eel)", "conditions": "substrate 4-acetoxyphenol", "experimental": "Acetylcholinesterase (E.C. 3.1.1.7) Type VI-S from Electrophorus electricus (electric eel) with activity of 217 U mg^−1 protein, was purchased from Sigma-Aldrich. 4-Acetoxyphenol was purchased from Combi-Blocks (San Diego, Calif., USA). All other chemicals were purchased from Sigma-Aldrich (reagent grade) and used as received.\nA mixture of BSA and AchE (containing 0.50 μg, or 0.11 U of the AchE, 8 μg of BSA in 10 μl of 0.06 M phosphate, pH 7.0) was spread on the working electrode of carbon SPE (RRPE1002C). The proteins were deposited on the electrode surface by air drying, and then crosslinked by adding 10 μl of 0.0021% of glutaraldehyde solution in water. The electrode was air dried at room temperature for 16 h to complete the crosslinking. To hydrate the sensor, it was stored in 0.1 M Tris-HCl, pH 7.0 for >24 h at room temperature before use.\nElectrochemical evaluations were carried out in the low volume SPE cell (Pine Research Instrumentation, Durham, N.C., USA), and the conditions controlled by a DY2013 Potentiostat with DY2000 software (Digi-Ivy, Inc. Austin, Tex., USA). The working potential was set with the Ag/AgCl electrode on the SPE as the reference. […]\nAll evaluations were carried out at 22±2° C. The current in amperometric determination was recorded for 150 s. […] The average of the readings between 120 s and 150 s was used as the steady-state current. […]"}, "[2]": {"target": "T1, Acetylcholinesterase (AchE)", "test": "Speciation of As(III)/As(V) mixtures with the AchE sensor versus ICP-AES", "format": "biochemical, Electrophorus electricus (electric eel)", "conditions": "5 μM As(V) mixed with 0-20 μM As(III), 0.1 M Tris-HCl pH 8.0"}, "[3]": {"target": "T1, Acetylcholinesterase (AchE)", "format": "biochemical, Electrophorus electricus (electric eel)"}, "[4]": {"test": "Hydrolase activity of commercial enzymes with 4-acetoxyphenol as substrate", "format": "biochemical", "description": "Instead of, or in addition to, AchE, the preferred biosensors of the present subject matter can utilize a wide range of enzyme(s). Table 1 set forth below lists a representative list of enzymes suitable for use in the biosensors of the present subject matter. The preferred biosensors can utilize one or more of these enzyme(s) instead of, or in addition to, AchE. It is also contemplated that other enzyme(s) could potentially be used in the biosensors of the present subject matter."}}, "note": "“And” between values parts separate entries of the source, which are not always exact repeats. Equal entries are not always repeated."}
{"molecule": "CC(=O)Oc1ccc(O)cc1", "note": "[4-acetoxyphenol]", "values": [{"measurement": "Vmax (Michaelis-Menten fit of steady state current)", "setting": "[1]", "value": "24.2±1.1", "unit": "μA"}, {"measurement": "current density corresponding to Vmax", "setting": "[1]", "value": "121+5.25 μA cm^−2"}]}
{"molecule": "O.O.O.O.O.O.O.O=[As]([O-])([O-])O.[Na+].[Na+]", "note": "[As(V), Na2HAsO4.7H2O]", "values": [{"measurement": "sensitivity of the AchE sensor to the species", "setting": "[2]", "value": "not sensitive"}]}
{"molecule": "sodium arsenite [As(III)]", "values": [{"measurement": "estimated inhibition (from linear regression)", "setting": "[3]", "value": "50.7±5.7", "unit": "%"}, {"measurement": "inhibition", "setting": "[3]", "value": "about 55%"}, {"measurement": "maximum inhibition", "setting": "[3]", "value": "69.3% and 65.7%"}, {"measurement": "IMax", "setting": "[3]; pH 8", "value": "70-75%"}, {"measurement": "Ki", "setting": "[3]; pH 8", "value": 61.6, "unit": "µM"}, {"measurement": "k1 (reversible pseudo-first order model)", "setting": "[3]; pH 8", "value": 47.3, "unit": "M⁻¹ s⁻¹"}, {"measurement": "second (dissociation) rate constant of the reversible pseudo-first order model, symbol not given", "setting": "[3]; pH 8", "value": 0.175, "unit": "M⁻¹"}]}
{"molecule": "B1", "values": [{"measurement": "Activity with 4-Acetoxyphenol", "setting": "[4]", "value": 1.59, "unit": "µmol/mg/min"}]}
{"molecule": "B2", "values": [{"measurement": "Activity with 4-Acetoxyphenol", "setting": "[4]", "value": 3.43, "unit": "µmol/mg/min"}]}
{"molecule": "B3", "values": [{"measurement": "Activity with 4-Acetoxyphenol", "setting": "[4]", "value": 1.93, "unit": "µmol/mg/min"}]}
